Our source for the EC50 values is patent publication US20060014785A1, “BICYCLIC, SUBSTITUTED TRIAZOLES AS MODULATORS OF PPAR AND METHODS OF THEIR PREPARATION” (Metabolex, Inc., priority 2004, published 2006).

Holding throughout (format): cell-based
One assay concerns the target T1, mouse PPARγ (Mus musculus, UniProt P37238).
T1 construct: expressed in transfected cells; host or cells: HEK293T
T1 sequence (P37238 238-503 limits assumed): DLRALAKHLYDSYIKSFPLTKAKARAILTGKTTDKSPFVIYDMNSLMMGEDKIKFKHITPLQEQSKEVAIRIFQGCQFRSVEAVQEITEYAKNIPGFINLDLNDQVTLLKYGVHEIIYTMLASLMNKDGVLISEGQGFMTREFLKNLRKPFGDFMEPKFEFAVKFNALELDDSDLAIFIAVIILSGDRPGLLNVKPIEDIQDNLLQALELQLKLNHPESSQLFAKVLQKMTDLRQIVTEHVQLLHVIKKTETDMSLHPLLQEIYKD
The assay can be described thus: PPAR gamma transactivation (GAL4 chimeric receptor luciferase reporter) assay. Particulars: GAL4-mPPARγ chimeric receptor, pFR-Luc reporter, HEK293T cells, 20 hours incubation; read-out: Gene Activation Assay: EC50 (<10 μM) PPAR gamma. An excerpt: (§1) Measurement of PPARγ, δ, and α Transactivation Activity.
(§2) Chimeric receptors were constructed in which the yeast transcription factor GAL4 DNA binding domain was fused to the ligand binding domain of either mouse PPARγ, mouse PPARδ or mouse PPAR α in order to assess the ability of the compounds of the present invention to activate gene expression in a PPAR-dependent manner. The chimeric receptor expression plasmids (GAL4-mPPARγ, GAL4-mPPAR δ and GAL4-PPAR α) and the reporter plasmid containing 5×GAL4 binding site (pFR-Luc, obtained from Stratagene) were transfected into HEK293T cells using the Lipofectamine 2000 reagent (Invitrogen), according to the manufacturers instructions. Six hours after transfection, the culture medium was renewed and the cells were incubated for 20 hours in presence of either 1) DMSO (vehicle), 2) a compound of the invention or 3) a reference compound for comparison. Rosiglitazone (obtained from WDF Pharma) was used as a reference compound for the PPARγassay; GW501516 (prepared as described in Sznaidman et al. Bioorg. Med. Chem. Lett. (2003) 13:1517-1521) was used as a reference compound for the PPAR δ assay and GW7647 (obtained from Sigma) was used as a reference compound for the PPAR α assay. Luciferase activity was measured as a reporter of gene expression. Luciferase activity on the cell lysates using the Steady-Glo reagent was measured according to the manufacturers instructions.
(A reporter such as luciferase makes a cellular process visible.)

Another assay deals with T2, mouse PPAR α (Mus musculus, UniProt P23204).
T2 construct: expressed in transfected cells; host or cells: HEK293T
T2 sequence (P23204 239-466 limits assumed): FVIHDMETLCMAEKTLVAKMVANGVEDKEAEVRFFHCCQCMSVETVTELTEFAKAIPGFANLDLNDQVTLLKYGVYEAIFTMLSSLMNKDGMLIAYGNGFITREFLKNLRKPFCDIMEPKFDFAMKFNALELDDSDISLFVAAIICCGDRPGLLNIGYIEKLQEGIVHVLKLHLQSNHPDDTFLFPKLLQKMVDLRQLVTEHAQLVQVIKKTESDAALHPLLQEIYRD
The assay can be described thus: PPAR alpha transactivation (GAL4 chimeric receptor luciferase reporter) assay. Particulars: pFR-Luc reporter, HEK293T cells, 20 hours incubation, read-out: Gene Activation Assay: EC50 (<10 μM) PPAR alpha.
Excerpt: as §1, §2

Another assay deals with T3, mouse PPARδ (Mus musculus, UniProt P35396).
T3 construct: expressed in transfected cells; host or cells: HEK293T
T3 sequence (P35396 210-438 limits assumed): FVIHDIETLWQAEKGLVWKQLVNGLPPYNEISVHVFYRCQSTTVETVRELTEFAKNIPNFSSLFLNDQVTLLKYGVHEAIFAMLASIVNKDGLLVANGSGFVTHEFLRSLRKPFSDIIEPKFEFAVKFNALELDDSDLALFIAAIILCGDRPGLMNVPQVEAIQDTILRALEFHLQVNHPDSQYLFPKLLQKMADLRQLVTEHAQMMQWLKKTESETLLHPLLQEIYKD
The assay can be described thus: PPAR delta transactivation (GAL4 chimeric receptor luciferase reporter) assay. Particulars: GAL4-mPPAR δ chimeric receptor, pFR-Luc reporter, HEK293T cells, 20 hours incubation; read-out: Gene Activation Assay: EC50 (<10 μM) PPAR delta.
Excerpt: as §1, §2

Consider `Cc1nn(-c2ccc(C(F)(F)F)cc2)nc1COc1ccc2ccn(CC(=O)O)c2c1` [Compound 130, {6-[5-Methyl-2-(4-trifluoromethyl-phenyl)-2H-[1,2,3]triazol-4-ylmethoxy]-indol-1-yl}-acetic acid], for which the EC50 on mouse PPARγ, on mouse PPAR α and at mouse PPARδ was < 10 µM each time.
On to `Cc1nn(-c2ccc(C(F)(F)F)cc2)nc1COc1ccc2c(CC(=O)O)coc2c1` [Compound 160, {6-[5-Methyl-2-(4-trifluoromethyl-phenyl)-2H-[1,2,3]triazol-4-ylmethoxy]-benzofuran-3-yl}-acetic acid], for which the EC50 on mouse PPARγ was > 10 µM; at mouse PPAR α, > 10 µM; on mouse PPARδ, < 10 µM.
As to `Cc1nn(-c2ccc(C(F)(F)F)cc2)nc1COc1ccc2c(ccn2CC(=O)O)c1` [Compound 20, {5-[5-Methyl-2-(4-trifluoromethyl-phenyl)-2H-[1,2,3]triazol-4-ylmethoxy]-indol-1-yl}-acetic acid], the figures for the EC50 at mouse PPARγ, on mouse PPAR α and at mouse PPARδ were > 30 µM, > 10 µM and < 10 µM, respectively.
In the same order, the values of `Cc1nn(-c2ccc(C(F)(F)F)cc2)nc1COc1ccc2c(c1)OCC2CC(=O)O` (stereo not drawn) [Compound 700, {6-[5-Methyl-2-(4-trifluoromethyl-phenyl)-2H-[1,2,3]triazol-4-ylmethoxy]-2,3-dihydro-benzofuran-3-yl}-acetic acid] are > 30 µM, > 10 µM and < 10 µM.
